The source of these data is patent publication US9789111B2, “Casein kinase 1δ (CK 1δ) inhibitors” (Electrophoretics Limited, priority 2010, dated 2017).

The subject of one series is SH-SY5Y-TMHT cells. Kind of series: Cell viability, MTT assay. It counts as cell-based, human. To be noted: 0.5 μM (tested 0.1 μM to 1 μM), 6 h of treatment. How it is done:
(§1) SH-SY5Y-TMHT cells are kept in culture medium (DMEM medium, 10% FCS, 1% NEAA, 1% L-Glutamine, 100 μg/ml Gentamycin, 300 μg/ml Geneticin G-418) for 2 days until 80-90% confluency. Cells are then differentiated in culture medium supplemented with 10 μM retinoic acid (RA) for 7 days changing medium every 2 to 3 days. Differentiated cells are seeded onto 6-well plates and 96-well plates at a cell density of 1.25×10^6 and 8×10^5 cells per well, respectively. On day 8 post-differentiation, the test compounds, reference compounds and vehicle control were added to the culture medium. After 6 h of compound exposure one plate of cells is subjected to a MTT assay to evaluate the effect of test and reference items on cell viability. Remaining wells are washed once with cold PBS and harvested in 300 μl RIPA-Buffer [50 mM Tris pH 7.4, 1% Nonident P40, 0.25% Na-deoxy-cholate, 150 mM NaCl, 1 mM EDTA, 1 μM NaF, 1 μM Na-ortho-vanadate, 80 mM Glycerophosphate, supplemented with freshly added protease (Calbiochem) and phosphatase (Sigma) inhibitor cocktail]. The cell suspension is transferred into a 1.5 ml tube and additionally lysed by sonication on ice. An aliquot of 20 μl is taken for the determination of the protein concentration (BCA assay). Subsequently, the lysates are snap frozen and stored at −80° C. until shipment.
To determine compound activity, it is necessary to control for potential cell toxicity of all molecules. Viability of cultures is determined by the MTT assay. This assay allows the measurement of the mitochondrial dehydrogenase activity which reduces yellow MTT to dark blue formazan crystals. Since this reaction is catalyzed in living cells only this assay is used for the determination of cell viability. MTT solution is added to each well in a final concentration of 0.5 mg/ml. After 2 hours, the MTT containing medium is aspired. Cells are lysed in 3% SDS and the formazan crystals are dissolved in isopropanol/HCl. Optical density is measured with a plate-reader at wavelength 570 nm. Cell survival rate is expressed as optical density (OD). Values are calculated as percent of control values.
Cell viability was determined in differentiated SH-SY5Y-TMHT cells by the MTT assay. Test and reference compounds were applied in a concentration range from 0.05 μM to 10 μM and from 0.1 μM to 1 μM, respectively. Upon 6 h of treatment, cell viability was evaluated. […] Statistical significance is indicated by *<0.05, **<0.01, ***<0.001 as determined by One-Way ANOVA. Data are shown from two independent experiments as group mean+/−SEM (n=8). […] Statistical significance is indicated by *<0.05, **<0.01, ***<0.001 as determined by One-Way ANOVA. […] Statistical significance is indicated by *<0.05, **<0.01, ***<0.001 as determined by One-Way ANOVA. […]
On the technique in general: Tetrazolium assays rely on reduction of a dye to a coloured formazan, in cell work by metabolically active cells.

The subject of series [1] is Tau phosphorylated at Threonine 231 in SH-SY5Y-TMHT cells. Kind of series: Western Blot of Tau phosphorylated at Threonine 231. To be noted: 5 μM, Western Blot. It counts as cell-based, human. How it is done:
as §1
(§2) Lysates of treated cells were prepared in Laemmli buffer and 10 μg loaded into each lane of a 10% Nu-PAGE gel (Invitrogen, UK). Samples were run until the coomassie blue dye fromt was within 1 cm of the bottom of the gel. The separated proteins were transferred onto nitrocellulose and blots developed using antibodies specific for total tau (Polyclonal Rabbit Anti-Human Tau, Dako, UK (cat # A0024)) and phopho-Threonine 231 (Tau (Phospho-Thr231) Antibody, Signalway Antibody, USA (cat # 11110)) respectively. In each case the bound antibody was detected using ECL Rabbit IgG, HRP-Linked (from donkey) (GE Healthcare, UK (cat # NA934))
(In general: Immunoblotting shows a protein as a band on a membrane.)

Series [2] deals with total Tau in SH-SY5Y-TMHT cells. Kind of series: Western Blot of total Tau. It counts as cell-based, human. The conditions noted are these: 5 μM. On the procedure:
as §1, §2

Series [3] concerns Tau phosphorylation at key pathogenic sites in SH-SY5Y-TMHT cells. To be noted: SH-SY5Y-TMHT cells exposed to kinase inhibitors; cited from earlier work.
The target in a further series is T1, CK1δ (Homo sapiens, UniProt P48730).
T1 construct: Recombinant human full-length construct; GST; host or cells: insect cells
T1 sequence (P48730 1-409 isoform P48730-2): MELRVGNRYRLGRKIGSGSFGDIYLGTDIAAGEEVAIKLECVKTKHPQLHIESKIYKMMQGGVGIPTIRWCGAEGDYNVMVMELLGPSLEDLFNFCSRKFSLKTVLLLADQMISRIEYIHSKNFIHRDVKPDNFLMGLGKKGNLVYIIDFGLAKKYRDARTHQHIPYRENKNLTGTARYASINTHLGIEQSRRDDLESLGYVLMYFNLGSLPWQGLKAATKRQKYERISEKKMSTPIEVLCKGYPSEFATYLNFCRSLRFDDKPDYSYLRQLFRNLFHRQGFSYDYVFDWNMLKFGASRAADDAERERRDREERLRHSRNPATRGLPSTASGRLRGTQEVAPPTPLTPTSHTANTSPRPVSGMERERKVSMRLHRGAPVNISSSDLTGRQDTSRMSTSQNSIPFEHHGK
Kind of series: CK1δ inhibition assay (33P-ATP, CK1tide substrate). Type of series: biochemical. To be noted: range of kinase inhibition assays. How it is done:
The compounds of the invention may be tested for inhibition of casein kinase 1 delta (CK1δ) in accordance with the assay protocols described in US 2010/0152157, EP 1,636,375 or Hanger et al (2007) J. Biol. Chem. 282, 23645-23654. In particular, the assay was conducted in accordance with the following protocol:
(§3) Base Reaction buffer; 20 mM Hepes (pH 7.5), 10 mM MgCl2, 1 mM EGTA, 0.02% Brij35, 0.02 mg/ml BSA, 0.1 mM Na3VO4, 2 mM DTT, 1% DMSO
(§4) It should be noted that required cofactors are added individually to each kinase reaction.
(§5) • 1. Prepare indicated substrate in freshly prepared Base Reaction Buffer as described above • 2. Deliver any required cofactors to the substrate solution • 3. Deliver indicated kinase into the substrate solution and gently mix • 4. Deliver compounds in DMSO into the kinase reaction mixture • 5. Deliver ^33P-ATP (specific activity 0.01 μCi/μl final) into the reaction mixture to initiate the reaction • 6. Incubate kinase reaction for 120 min. at room temperature • 7. Reactions are spotted onto P81 ion exchange paper (Whatman #3698-915) • 8. Wash filters extensively in 0.75% Phosphoric acid Kinase Information: • CK1δ—Genbank Accession # NP_620693 • Recombinant human full-length construct. GST-tagged, expressed in insect cells. • Final concentration in assay=4 nM • Substrate: CK1tide • Substrate sequence: [KRRRAL[pS]VASLPGL] • Final substrate concentration in assay=20 μM • It should be noted that no additional cofactors are added to the reaction mixture.

A further series has as its target ABL2/ARG (Homo sapiens, UniProt P42684). In words: kinase inhibition assay panel. Type of series: biochemical. On the procedure:
as §3, §4, §5

The next series concerns the target CDK5/p25 (Homo sapiens, UniProt Q00535). Kind of series: kinase inhibition assay panel. Type of series: biochemical. How it is done: as §3, §4, §5
In another series the target is GSK3b (Homo sapiens, UniProt P49841). In words: kinase inhibition assay panel. Type of series: biochemical. How it is done:
as §3, §4, §5

The next series addresses HGK/MAP4K4 (Homo sapiens, UniProt O95819). In words: kinase inhibition assay panel. It counts as biochemical. How it is done: as §3, §4, §5
The next series deals with KDR/VEGFR2 (Homo sapiens, UniProt P35968). Kind of series: kinase inhibition assay panel. It counts as biochemical. On the procedure: as §3, §4, §5
For the next series, the target named is LCK (Homo sapiens, UniProt P06239). Kind of series: kinase inhibition assay panel. It counts as biochemical. On the procedure: as §3, §4, §5
Another series concerns the target MSK1/RPS6KA5 (Homo sapiens, UniProt O75582). Kind of series: kinase inhibition assay panel. Type of series: biochemical. On the procedure:
as §3, §4, §5

The target in a further series is T2, PDK1/PDPK1 (Homo sapiens, UniProt O15530).
T2 sequence (O15530 1-556): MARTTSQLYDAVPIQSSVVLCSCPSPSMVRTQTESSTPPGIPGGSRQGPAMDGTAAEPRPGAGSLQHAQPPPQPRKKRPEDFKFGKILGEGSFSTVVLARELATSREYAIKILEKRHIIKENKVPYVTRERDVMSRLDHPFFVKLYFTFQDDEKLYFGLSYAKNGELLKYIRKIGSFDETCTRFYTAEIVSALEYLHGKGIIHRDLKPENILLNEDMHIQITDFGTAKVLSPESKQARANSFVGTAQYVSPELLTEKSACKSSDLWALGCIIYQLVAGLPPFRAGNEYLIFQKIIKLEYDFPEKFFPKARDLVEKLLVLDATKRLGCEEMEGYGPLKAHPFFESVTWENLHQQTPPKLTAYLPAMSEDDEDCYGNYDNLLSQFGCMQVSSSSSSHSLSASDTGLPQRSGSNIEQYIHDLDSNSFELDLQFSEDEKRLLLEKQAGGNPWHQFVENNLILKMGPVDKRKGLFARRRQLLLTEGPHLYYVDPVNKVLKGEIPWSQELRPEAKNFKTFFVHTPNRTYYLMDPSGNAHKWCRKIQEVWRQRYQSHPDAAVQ
Kind of series: kinase inhibition assay panel. It counts as biochemical. On the procedure:
as §3, §4, §5

In a further series the target is PIM3 (Homo sapiens, UniProt Q86V86). In words: kinase inhibition assay panel. Type of series: biochemical. On the procedure:
as §3, §4, §5

A further series concerns the target PKCa (Homo sapiens, UniProt P17252). In words: kinase inhibition assay panel. Type of series: biochemical. On the procedure: as §3, §4, §5
For the next series, the target named is PKCb2 (Homo sapiens, UniProt P05771). In words: kinase inhibition assay panel. It counts as biochemical. How it is done: as §3, §4, §5
A further series addresses ROCK1 (Homo sapiens, UniProt Q13464). Kind of series: kinase inhibition assay panel. Type of series: biochemical. How it is done: as §3, §4, §5
A further series addresses c-SRC (Homo sapiens, UniProt P12931). Kind of series: kinase inhibition assay panel. It counts as biochemical. On the procedure: as §3, §4, §5
The next series concerns the target CK1g1 (Homo sapiens, UniProt Q9HCP0). In words: kinase inhibition assay panel. Type of series: biochemical.
The next series addresses CK1g2 (Homo sapiens, UniProt P78368). Kind of series: kinase inhibition assay panel. It counts as biochemical.
For the next series, the target named is CLK2 (Homo sapiens, UniProt P49760). In words: kinase inhibition assay panel. It counts as biochemical.
The target of a further series is FGFR1 (Homo sapiens, UniProt P11362). In words: kinase inhibition assay panel. Type of series: biochemical.

Chain of LCK (P06239 whole entry, species assumed): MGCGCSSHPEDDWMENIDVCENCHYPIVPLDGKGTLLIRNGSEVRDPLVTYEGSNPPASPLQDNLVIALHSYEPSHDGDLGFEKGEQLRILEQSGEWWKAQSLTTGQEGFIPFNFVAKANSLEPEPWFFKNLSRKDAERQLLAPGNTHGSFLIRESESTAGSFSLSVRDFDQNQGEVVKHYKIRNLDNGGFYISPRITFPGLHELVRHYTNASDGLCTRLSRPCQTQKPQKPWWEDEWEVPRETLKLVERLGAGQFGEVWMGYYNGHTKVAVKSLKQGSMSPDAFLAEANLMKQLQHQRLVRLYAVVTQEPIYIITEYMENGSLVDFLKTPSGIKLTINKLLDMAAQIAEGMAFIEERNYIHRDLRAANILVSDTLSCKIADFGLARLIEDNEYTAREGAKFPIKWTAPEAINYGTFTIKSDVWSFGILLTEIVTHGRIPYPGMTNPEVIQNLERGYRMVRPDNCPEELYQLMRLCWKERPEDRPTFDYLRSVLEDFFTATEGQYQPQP
Chain of GSK3b (P49841 whole entry, species assumed): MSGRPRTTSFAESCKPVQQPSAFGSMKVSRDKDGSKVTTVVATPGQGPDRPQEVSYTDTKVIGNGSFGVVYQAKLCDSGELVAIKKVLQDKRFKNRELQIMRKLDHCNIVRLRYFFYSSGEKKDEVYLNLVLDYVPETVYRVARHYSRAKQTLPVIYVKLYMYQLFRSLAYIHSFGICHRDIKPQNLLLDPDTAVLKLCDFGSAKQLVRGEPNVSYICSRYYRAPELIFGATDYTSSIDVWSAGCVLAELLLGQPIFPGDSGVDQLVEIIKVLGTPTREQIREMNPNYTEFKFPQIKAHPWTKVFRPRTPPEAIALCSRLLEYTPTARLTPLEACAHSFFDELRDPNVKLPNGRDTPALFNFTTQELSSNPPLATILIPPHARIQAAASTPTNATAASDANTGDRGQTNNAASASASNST
Chain of KDR/VEGFR2 (P35968 20-1356): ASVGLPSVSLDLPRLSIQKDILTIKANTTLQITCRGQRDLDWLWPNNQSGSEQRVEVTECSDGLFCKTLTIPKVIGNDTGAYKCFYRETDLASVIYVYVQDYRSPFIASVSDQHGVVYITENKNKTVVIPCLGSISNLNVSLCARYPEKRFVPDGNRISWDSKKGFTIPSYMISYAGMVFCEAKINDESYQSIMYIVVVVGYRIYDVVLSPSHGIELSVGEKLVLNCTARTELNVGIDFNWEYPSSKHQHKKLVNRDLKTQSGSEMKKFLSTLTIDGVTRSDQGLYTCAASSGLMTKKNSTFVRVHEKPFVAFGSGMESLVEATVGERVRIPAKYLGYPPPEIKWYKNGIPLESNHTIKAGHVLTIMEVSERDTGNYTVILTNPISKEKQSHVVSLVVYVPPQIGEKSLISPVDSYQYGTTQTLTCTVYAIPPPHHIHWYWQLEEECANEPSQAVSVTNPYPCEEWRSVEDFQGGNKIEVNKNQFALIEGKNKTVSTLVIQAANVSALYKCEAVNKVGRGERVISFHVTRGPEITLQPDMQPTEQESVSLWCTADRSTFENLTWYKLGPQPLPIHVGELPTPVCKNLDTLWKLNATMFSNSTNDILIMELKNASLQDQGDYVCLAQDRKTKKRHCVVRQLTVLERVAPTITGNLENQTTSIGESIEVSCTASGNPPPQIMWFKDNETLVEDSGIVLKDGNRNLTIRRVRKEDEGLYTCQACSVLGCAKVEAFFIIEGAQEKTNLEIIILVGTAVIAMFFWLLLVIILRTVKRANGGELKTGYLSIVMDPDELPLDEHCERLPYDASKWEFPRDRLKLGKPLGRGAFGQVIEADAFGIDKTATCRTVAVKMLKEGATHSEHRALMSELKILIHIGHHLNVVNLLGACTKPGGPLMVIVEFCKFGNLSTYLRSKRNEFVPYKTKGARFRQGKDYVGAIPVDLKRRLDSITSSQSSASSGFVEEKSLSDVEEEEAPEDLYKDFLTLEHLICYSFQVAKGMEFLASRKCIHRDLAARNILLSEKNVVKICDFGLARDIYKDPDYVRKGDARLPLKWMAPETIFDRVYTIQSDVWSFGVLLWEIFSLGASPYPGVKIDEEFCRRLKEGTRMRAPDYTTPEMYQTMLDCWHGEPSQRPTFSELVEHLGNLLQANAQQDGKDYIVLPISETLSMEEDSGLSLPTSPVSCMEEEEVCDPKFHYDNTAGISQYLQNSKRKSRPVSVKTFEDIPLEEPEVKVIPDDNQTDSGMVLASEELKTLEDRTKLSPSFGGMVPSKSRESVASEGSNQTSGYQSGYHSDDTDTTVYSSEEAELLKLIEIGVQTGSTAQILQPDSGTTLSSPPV
Chain of ABL2/ARG (P42684 whole entry): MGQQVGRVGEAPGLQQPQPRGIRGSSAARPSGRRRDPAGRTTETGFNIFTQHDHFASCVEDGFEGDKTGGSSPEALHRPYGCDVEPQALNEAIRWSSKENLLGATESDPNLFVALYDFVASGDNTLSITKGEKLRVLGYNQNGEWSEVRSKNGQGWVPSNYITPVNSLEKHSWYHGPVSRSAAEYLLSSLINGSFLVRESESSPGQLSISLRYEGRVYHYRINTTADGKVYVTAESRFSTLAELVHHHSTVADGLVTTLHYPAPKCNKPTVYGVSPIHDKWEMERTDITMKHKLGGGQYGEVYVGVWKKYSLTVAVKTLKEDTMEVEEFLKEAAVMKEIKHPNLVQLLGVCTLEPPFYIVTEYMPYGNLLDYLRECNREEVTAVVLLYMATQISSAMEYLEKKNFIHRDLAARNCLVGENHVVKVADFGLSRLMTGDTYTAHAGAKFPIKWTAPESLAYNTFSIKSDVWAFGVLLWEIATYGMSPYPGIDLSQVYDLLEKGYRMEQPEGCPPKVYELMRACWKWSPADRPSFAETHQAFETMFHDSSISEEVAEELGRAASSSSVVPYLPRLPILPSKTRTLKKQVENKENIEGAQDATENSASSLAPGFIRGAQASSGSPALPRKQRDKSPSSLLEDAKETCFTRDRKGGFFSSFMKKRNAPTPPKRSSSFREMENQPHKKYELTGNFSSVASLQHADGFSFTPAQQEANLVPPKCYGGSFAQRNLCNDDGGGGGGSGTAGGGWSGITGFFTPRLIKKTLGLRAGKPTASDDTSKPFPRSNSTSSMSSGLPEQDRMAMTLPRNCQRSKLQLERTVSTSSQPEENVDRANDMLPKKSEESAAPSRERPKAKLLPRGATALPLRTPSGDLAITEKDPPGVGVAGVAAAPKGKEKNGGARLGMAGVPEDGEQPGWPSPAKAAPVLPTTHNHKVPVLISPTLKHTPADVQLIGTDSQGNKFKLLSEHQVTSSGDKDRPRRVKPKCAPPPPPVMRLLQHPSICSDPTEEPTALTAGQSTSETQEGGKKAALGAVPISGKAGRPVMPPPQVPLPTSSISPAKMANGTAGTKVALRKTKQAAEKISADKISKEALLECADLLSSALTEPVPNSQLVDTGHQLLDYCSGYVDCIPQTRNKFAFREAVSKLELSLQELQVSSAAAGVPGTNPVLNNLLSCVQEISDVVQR
Chain of PKCb2 (P05771 1-673 isoform P05771-2): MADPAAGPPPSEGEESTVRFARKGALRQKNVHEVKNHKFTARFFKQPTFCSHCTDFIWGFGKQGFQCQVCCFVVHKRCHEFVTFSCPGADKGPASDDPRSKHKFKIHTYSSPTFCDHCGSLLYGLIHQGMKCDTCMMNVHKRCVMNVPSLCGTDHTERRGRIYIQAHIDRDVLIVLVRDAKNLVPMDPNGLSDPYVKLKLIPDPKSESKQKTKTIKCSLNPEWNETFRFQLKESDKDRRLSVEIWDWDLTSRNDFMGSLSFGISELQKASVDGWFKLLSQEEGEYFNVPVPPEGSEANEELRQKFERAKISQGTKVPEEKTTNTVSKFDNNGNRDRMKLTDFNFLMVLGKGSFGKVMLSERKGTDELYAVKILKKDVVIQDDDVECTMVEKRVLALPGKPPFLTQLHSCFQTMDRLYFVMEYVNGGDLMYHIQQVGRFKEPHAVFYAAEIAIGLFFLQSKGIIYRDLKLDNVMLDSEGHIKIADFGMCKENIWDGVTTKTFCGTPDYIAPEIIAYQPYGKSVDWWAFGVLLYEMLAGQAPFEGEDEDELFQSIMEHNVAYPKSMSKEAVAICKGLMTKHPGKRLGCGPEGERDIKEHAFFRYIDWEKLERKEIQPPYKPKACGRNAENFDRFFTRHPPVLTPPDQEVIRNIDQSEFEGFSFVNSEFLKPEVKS
Chain of CLK2 (P49760 whole entry, species assumed): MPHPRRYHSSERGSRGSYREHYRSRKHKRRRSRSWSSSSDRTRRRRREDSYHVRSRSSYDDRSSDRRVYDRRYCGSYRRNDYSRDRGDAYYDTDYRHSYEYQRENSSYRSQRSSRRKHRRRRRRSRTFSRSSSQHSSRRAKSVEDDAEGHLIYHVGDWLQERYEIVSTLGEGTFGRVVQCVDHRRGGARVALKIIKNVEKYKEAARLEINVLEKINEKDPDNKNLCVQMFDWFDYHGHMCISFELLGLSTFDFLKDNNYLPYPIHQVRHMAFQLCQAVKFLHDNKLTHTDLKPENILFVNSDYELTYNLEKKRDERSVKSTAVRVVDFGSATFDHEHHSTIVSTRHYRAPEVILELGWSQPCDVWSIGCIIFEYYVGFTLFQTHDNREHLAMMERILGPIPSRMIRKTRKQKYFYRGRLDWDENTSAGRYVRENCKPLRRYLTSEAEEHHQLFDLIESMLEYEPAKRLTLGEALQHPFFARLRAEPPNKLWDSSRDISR

As for `Nc1nccc(-c2c(-c3ccc(F)cc3)ncn2C2CCCCC2)n1` [PF670462, reference compound], the “effect on the cell viability of SH-SY5Y-TMHT cells” value in the series on SH-SY5Y-TMHT cells was “significant protective effect”. In addition, in series [1], the “detectable level of pT231 in Tau protein” value is recorded as “reduced the detectable level of pT231”. Moreover, the “detectable levels of total Tau” value in [2] is “marginally less total Tau”.
For `COc1cc(OC)c(C=C2C(O)=Nc3ccccc32)c(OC)c1` [IC261], the “levels of Tau phosphorylation at key pathogenic sites” value in series [3] is “reduced”.
Take `NC(=O)c1c(N)n(C(=O)c2ccc(F)cc2)c2ccccc12` [Compound 999, 2-amino-1-[(4-fluorophenyl)carbonyl]-1H-indole-3-carboxamide]: the “selectivity for CK1δ when compared with other kinases” value on CK1δ was “significant and selective inhibition for CK1δ”. Further, the “inhibition of ABL2/ARG” value against ABL2/ARG is on record as “lower than 40%”. The “inhibition of CDK5/p25” value against CDK5/p25 is “lower than 40%”. At GSK3b, the “inhibition of GSK3b” value was “lower than 40%”. In addition, the “inhibition of HGK/MAP4K4” value at HGK/MAP4K4 is recorded as “lower than 40%”. Besides, the “inhibition of KDR/VEGFR2” value against KDR/VEGFR2 is recorded as “lower than 40%”. Besides, the “inhibition of LCK” value on LCK is reported as “lower than 40%”. Moreover, the “inhibition of MSK1/RPS6KA5” value against MSK1/RPS6KA5 is listed as “lower than 40%”. Besides, on PDK1/PDPK1, the “inhibition of PDK1/PDPK1” value is listed as “lower than 40%”. Moreover, the “inhibition of PIM3” value against PIM3 was “lower than 40%”. Moreover, the “inhibition of PKCa” value against PKCa is “lower than 40%”. For the same compound, on PKCb2, the “inhibition of PKCb2” value is listed as “lower than 40%”. The “inhibition of ROCK1” value against ROCK1 is “lower than 40%”. Also, the “inhibition of c-SRC” value against c-SRC is listed as “lower than 40%”. In addition, at CK1g1, the “inhibition of CK1g1” value was “lower than 40%”. Further, the “inhibition of CK1g2” value at CK1g2 is “lower than 40%”. The “inhibition of CLK2” value at CLK2 is “lower than 40%”. Besides, the “inhibition of FGFR1” value on FGFR1 is recorded as “lower than 40%”.
